The source of these data is patent US20250042963A1, “METHODS FOR TREATING MYELOPROLIFERATIVE DISORDERS” (Acceleron Pharma Inc., priority 2015, published 2025).

The subject of data set [1] is patients with PV that did not respond to hydroxyurea. The conditions noted are these: cited from earlier work.
Another data set relates to myelofibrosis patients. The conditions noted are these: cited from earlier work.
Data set [2] deals with patients with PMF or post-PV/ET MF. The note with it: cited from earlier work.
The test system of a further data set is JAK2V617F-positive cells. The conditions noted are these: cited from earlier work.
Data set [3] concerns patients with a myeloproliferative disorder. The conditions noted are these: symptomatic splenomegaly; cited from earlier work.
For the next data set, the system named is patients with MF. The conditions noted are these: 82 evaluable patients with MF, three phase 1 and 2 trials; cited from earlier work.
The test system of a further data set is MF patients. The conditions noted are these: cited from earlier work.
The target in a further data set is T1, human TGFβ3 (Homo sapiens, UniProt P10600).
T1 construct: purchased PeproTech
T1 sequence (P10600 301-412 limits assumed): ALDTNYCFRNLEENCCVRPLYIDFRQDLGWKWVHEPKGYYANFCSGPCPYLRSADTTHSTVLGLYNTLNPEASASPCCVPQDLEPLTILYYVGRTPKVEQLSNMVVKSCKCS
As to the kind of experiment: Reporter gene assay in A549 cells (pGL3(CAGA)12), inhibition of TGFβ3 activity. The format is cell-based. An excerpt:
A reporter gene assay in A549 cells was used to determine the ability of hTβRII-hFc variants to inhibit activity of TGFβ1, TGFβ2, and TGFβ3. This assay is based on a human lung carcinoma cell line transfected with a pGL3(CAGA)12 reporter plasmid (Dennler et al., 1998, EMBO 17: 3091-3100) as well as a Renilla reporter plasmid (pRLCMV) to control for transfection efficiency.
(§1) On the first day of the assay, A549 cells (ATCC®: CCL-185™) were distributed in 48-well plates at 6.5×10^4 cells per well. On the second day, a solution containing 10 μg pGL3(CAGA)12, 100 ng pRLCMV, 30 μl X-tremeGENE 9 (Roche Applied Science), and 970 μl OptiMEM (Invitrogen) was preincubated for 30 min, then added to Eagle's minimum essential medium (EMEM, ATCC®) supplemented with 0.1% BSA, which was applied to the plated cells (500 μl/well) for incubation overnight at […]. On the third day, medium was removed, and cells were incubated overnight at 37° C. with a mixture of ligands and inhibitors prepared as described below.
Serial dilutions of test articles were made in a 48-well plate in a 200 μl volume of assay buffer (EMEM+0.1% BSA). […] Human TGFβ 1, human TGFβ2, and human TGFβ3 were obtained from PeproTech. Test solutions were incubated at 37° C. for 30 minutes, then 250 μl of the mixture was added to all wells. Each concentration of test article was determined in duplicate. After incubation with test solutions overnight, cells were rinsed with phosphate-buffered saline, then lysed with passive lysis buffer (Promega E1941) and stored overnight at −70° C. On the fourth and final day, plates were warmed to room temperature with gentle shaking. Cell lysates were transferred in duplicate to a chemiluminescence plate (96-well) and analyzed in a luminometer with reagents from a Dual-Luciferase Reporter Assay system (Promega E1980) to determine normalized luciferase activity.
For orientation: Reporter assays use an easily measured gene product as a stand-in for the process of interest.

In the next data set the target is T2, human TGFβ2 (Homo sapiens, UniProt P61812).
T2 construct: purchased PeproTech
T2 sequence (P61812 303-414 limits assumed): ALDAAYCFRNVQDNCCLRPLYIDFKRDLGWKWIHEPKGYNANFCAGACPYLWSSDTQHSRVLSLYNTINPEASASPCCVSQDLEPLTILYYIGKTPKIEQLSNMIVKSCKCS
As to the kind of experiment: Reporter gene assay in A549 cells (pGL3(CAGA)12), inhibition of TGFβ2 activity. It counts as cell-based. The conditions noted are these: Summary of Ligand Selectivity; cell names the ligand in this class.
Description: (§2) A reporter gene assay in A549 cells was used to determine the ability of hTβRII-hFc variants to inhibit activity of TGFβ1, TGFβ2, and TGFβ3. This assay is based on a human lung carcinoma cell line transfected with a pGL3(CAGA)12 reporter plasmid (Dennler et al., 1998, EMBO 17: 3091-3100) as well as a Renilla reporter plasmid (pRLCMV) to control for transfection efficiency. The CAGA motif is present in the promoters of TGFβ-responsive genes (for example, PAI-1), so this vector is of general use for factors signaling through SMAD2 and SMAD3.
as §1
(§3) Serial dilutions of test articles were made in a 48-well plate in a 200 μl volume of assay buffer (EMEM+0.1% BSA). An equal volume of assay buffer containing the test ligand was added to obtain a final ligand concentration equal to the EC50 determined previously. Human TGFβ 1, human TGFβ2, and human TGFβ3 were obtained from PeproTech. Test solutions were incubated at 37° C. for 30 minutes, then 250 μl of the mixture was added to all wells. Each concentration of test article was determined in duplicate. After incubation with test solutions overnight, cells were rinsed with phosphate-buffered saline, then lysed with passive lysis buffer (Promega E1941) and stored overnight at −70° C. On the fourth and final day, plates were warmed to room temperature with gentle shaking. Cell lysates were transferred in duplicate to a chemiluminescence plate (96-well) and analyzed in a luminometer with reagents from a Dual-Luciferase Reporter Assay system (Promega E1980) to determine normalized luciferase activity.

The target of the next data set is T3, human TGFβ1 (Homo sapiens, UniProt P01137).
T3 construct: purchased PeproTech
Kind of data set: Reporter gene assay in A549 cells (pGL3(CAGA)12), inhibition of TGFβ1 activity. It counts as cell-based.
Description: as §2, §1, §3

Setting [4] is: Summary of Ligand Selectivity, cell names the ligand in this class.

T3 sequence (P01137 279-390 limits assumed): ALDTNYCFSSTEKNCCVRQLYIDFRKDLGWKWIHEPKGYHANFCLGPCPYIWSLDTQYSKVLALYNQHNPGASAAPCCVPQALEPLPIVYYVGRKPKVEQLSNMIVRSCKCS

On to `CCN(CC)Cc1ccc2cc(COC(=O)Nc3ccc(C(=O)NO)cc3)ccc2c1` [Givinostat, givinostat], for which the “complete or partial response” value in data set [1] (randomized phase 2 trial, PV) is recorded as “approximately 50%”. For the same molecule, the tolerability result in data set [1] (the combination) is listed as “generally well tolerated”.
On to `C#C[C@]1(O)CC[C@H]2[C@@H]3CCC4=Cc5oncc5C[C@]4(C)[C@H]3CC[C@@]21C` [danazol], for which the “response rate / responses in anemia (% of patients)” value in the data set on myelofibrosis patients (anemic myelofibrosis patients) is given as “around 20%”.
Regarding `CO[C@H]1C[C@@H]2CC[C@@H](C)[C@@](O)(O2)C(=O)C(=O)N2CCCC[C@H]2C(=O)O[C@H]([C@H](C)C[C@@H]2CC[C@@H](OCCO)[C@H](OC)C2)CC(=O)[C@H](C)/C=C(\C)[C@@H](O)[C@@H](OC)C(=O)[C@H](C)C[C@H](C)/C=C/C=C/C=C/1C` [everolimus], in data set [2] (30 evaluable patients), the “complete resolution of pruritus” value is 80% and the “complete resolution of systemic symptoms” value is listed as 69%. In addition, in data set [2] (in vivo), the “response rate, European Myelofibrosis Network criteria” value is recorded as 60%; the “response rate, International Working Group for Myelofibrosis Research and Treatment criteria” value is 23%. Further, the “proliferation of JAK2V617F-positive cells” value in the data set on JAK2V617F-positive cells is “decreased”.
As to `Nc1cccc2c1CN(C1CCC(=O)NC1=O)C2=O` (centres unmarked) [lenalidomide], the “spleen responses / response rate” value in data set [3] is 33%. The effect on anemia entry with myelofibrosis patients (myelofibrosis patients with del(5q31)-associated anemia) is recorded as “significant improvement, with resolution of anemia”.
Turning to `Nc1cccc2c1C(=O)N(C1CCC(=O)NC1=O)C2=O` (centres unmarked) [pomalidomide], the “anemia response according to IWG-MRT criteria” value in the data set with patients with MF is 27%.
For `CCCCc1nc2cc(/C=C/C(=O)NO)ccc2n1CCN(CC)CC` [pracinostat], the “IWG criteria anemia responses” value in the data set with MF patients (MF patients) is recorded as “approximately 10%”. The “reduction in spleen size (% of patients)” value in the data set on MF patients (human, in vivo) was 27%.
Turning to `O=C1CCC(N2C(=O)c3ccccc3C2=O)C(=O)N1` (centres unmarked) [thalidomide], the “spleen responses / response rate” value in [3] is less than 20%. Besides, the tolerability result in the data set with myelofibrosis patients (myelofibrosis patients, peripheral neuropathies, constipation, somnolence) was “poorly tolerated”.

B1: TβRIIshort(23-159)-G2Fc: wild-type human TβRII short isoform ECD (23-159) fused to human IgG2 Fc; SEQ ID NO: 50, with TPA leader SEQ ID NO: 52 (protein)
chain: TIPPHVQKSVNNDMIVTDNNGAVKFPQLCKFCDVRFSTCDNQKSCMSNCSITSICEKPQEVCVAVWRKNDENITLETVCHDPKLPYHDFILEDAASPKCIMKEKKKPGETFFMCSCSSDECNDNIIFSEEYNTSNPDTGGGVECPPCPAPPVAGPSVFLFPPKPKDTLMISRTPEVTCVVVDVSHEDPEVQFNWYVDGVEVHNAKTKPREEQFNSTFRVVSVLTVVHQDWLNGKEYKCKVSNKGLPAPIEKTISKTKGQPREPQVYTLPPSREEMTKNQVSLTCLVKGFYPSDIAVEWESNGQPENNYKTTPPMLDSDGSFFLYSKLTVDKSRWQQGNVFSCSVMHEALHNHYTQKSLSLSPGK
Take B1: the IC50 was found to be 0.14 nM with human TGFβ3 (A549 reporter gene assay, hTGFβ3 270 pg/ml, first experiment (D110K)) and 1.73 nM with human TGFβ1 (A549 reporter gene assay, hTGFβ1 640 pg/ml, first experiment (D110K)). The “Degree of Ligand Inhibition: Potent (ligand TGFβ3)” value with human TGFβ3 (setting [4]) is given as “TGFβ3”. In addition, the “Degree of Ligand Inhibition: Negligible (ligand TGFβ2)” value in the data set with human TGFβ2 is reported as “TGFβ2”. In addition, the “Degree of Ligand Inhibition: Potent (ligand TGFβ1)” value in the data set with human TGFβ1 (setting [4]) is “TGFβ1”.

As a reminder, the IC50 is the point on the concentration scale where inhibition reaches its midpoint. Low readings indicate greater potency in that assay, high ones weaker potency in that assay.
